Values quoted from earlier work as cited in PMC4369175 (Journal of photochemistry and photobiology. B, Biology, 2015).
Where two headings read alike, the source gives them in different places.

How the values were obtained:
[1] = standard value

Φf of fluorescence standard ([1]; in methanol) | ΦΔ singlet oxygen quantum yield of the reference standard | SMILES | Φf of fluorescence standard ([1]; in ethanol)
 |  | CC/N=c1\cc2oc3cc(NCC)c(C)cc3c(-c3ccccc3C(=O)OCC)c-2cc1C [Rhodamine 6G] | 0.95
0.03 | 0.52 | CN(C)c1ccc2nc3ccc(=[N+](C)C)cc-3sc2c1 [methylene blue] | 
